Where “and” joins values, the source holds several entries; their conditions need not be identical. Equal entries are not always repeated. Where two headings read alike, the source gives them in different places.
What was measured:
[1] = molecular target: human serotonin reuptake transporter (Homo sapiens, UniProt P31645); test: cell-based
[2] = molecular target: T1, human dopamine reuptake transporter (Homo sapiens, UniProt Q01959); test: cell-based
T1 construct: expressed in transfected cells; host or cells: CHO-K1 or HEK293

[3] = molecular target: T2, 5-HT Transporter (SERT) Sites in Mouse Brain (Mus musculus, UniProt Q60857); test: Ex vivo [3H] citalopram binding after oral dosing; set-up: species or system C57BL/6 mice; settings: for % Transporter Occupancy, SERT: 60 minutes after treatment, vs vehicle; for Mean Specific Binding (dpm) ± S.E.M., SERT: mice sacrificed 60 minutes after treatment, cortex
T2 construct: Whole brains were removed and cortex and striata dissected out; from tissue; host or cells: C57BL/6 mouse frontal cortex homogenate

[4] = molecular target: T3, DA Transporter (DAT) Sites in Mouse Brain (Mus musculus, UniProt Q61327); test: Ex vivo [3H] WIN 35428 binding after oral dosing; set-up: species or system C57BL/6 mice; settings: for % Transporter Occupancy, DAT: 60 minutes after treatment, vs vehicle; for Mean Specific Binding (dpm) ± S.E.M., DAT: mice sacrificed 60 minutes after treatment, striatum
T3 construct: Striatum was used to determine occupancy of DA transporter sites; from tissue; host or cells: C57BL/6 mouse striatum homogenate

mice = test: Mouse locomotor activity; type: in vivo; settings: PO
Protocol: In order to ensure effects of the compounds on immobility time were not related to a general stimulant effect on baseline motor activity, locomotor activity was assessed using photocell monitored cages (Med-Associates Inc.). Each test chamber was equipped with infrared photocell beams to measure movement of the animals. Horizontal and vertical activity were measured
Rats or mice were pretreated with vehicle or test compounds and placed back in home cage, following which they will be individually placed in locomotor cages and activity was monitored in 5 minute intervals for up to 60 min.
Data were analyzed by one way analysis of variance (ANOVA) followed by post-hoc comparisons where appropriate. An effect was considered significant if p < 0.05. Data are represented as the mean and standard error to the mean (s.e.m).

[5] = molecular target: Norepinephrine Transporter (NET) Sites in Mouse Brain (Mus musculus, UniProt O55192); settings: PO; for % Transporter Occupancy, NET: 60 minutes after treatment, vs vehicle; for Mean Specific Binding (dpm) ± S.E.M., NET: mice sacrificed 60 minutes after treatment, cortex
[6] = recombinant human serotonin transporter (SERT), read-out: Human IC50 (nM) hSERT
[7] = recombinant human dopamine transporter (DAT), read-out: Human IC50 (nM) hDAT
[8] = read-out: Human IC50 (nM) hSERT
[9] = Human IC50 (nM) hSERT, recombinant human serotonin transporter (SERT)

Sequence of human serotonin reuptake transporter (P31645 whole entry): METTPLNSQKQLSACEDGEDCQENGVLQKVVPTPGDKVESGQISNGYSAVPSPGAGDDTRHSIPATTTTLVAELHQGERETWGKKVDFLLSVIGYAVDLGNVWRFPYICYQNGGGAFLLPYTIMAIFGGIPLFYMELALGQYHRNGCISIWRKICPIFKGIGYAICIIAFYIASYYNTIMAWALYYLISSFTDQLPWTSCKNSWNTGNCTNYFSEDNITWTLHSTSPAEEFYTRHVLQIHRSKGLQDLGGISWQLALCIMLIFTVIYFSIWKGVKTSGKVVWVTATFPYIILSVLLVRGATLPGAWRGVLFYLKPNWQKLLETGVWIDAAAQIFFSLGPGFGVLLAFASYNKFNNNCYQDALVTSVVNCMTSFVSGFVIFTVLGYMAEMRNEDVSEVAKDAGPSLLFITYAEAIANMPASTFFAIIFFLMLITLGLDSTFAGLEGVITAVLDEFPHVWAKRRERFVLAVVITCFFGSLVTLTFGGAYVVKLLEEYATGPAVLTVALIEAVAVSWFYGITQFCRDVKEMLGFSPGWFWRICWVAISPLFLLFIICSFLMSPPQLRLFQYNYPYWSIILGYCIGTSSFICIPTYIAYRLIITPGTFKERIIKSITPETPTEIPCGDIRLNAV
T3 sequence (Q61327 whole entry): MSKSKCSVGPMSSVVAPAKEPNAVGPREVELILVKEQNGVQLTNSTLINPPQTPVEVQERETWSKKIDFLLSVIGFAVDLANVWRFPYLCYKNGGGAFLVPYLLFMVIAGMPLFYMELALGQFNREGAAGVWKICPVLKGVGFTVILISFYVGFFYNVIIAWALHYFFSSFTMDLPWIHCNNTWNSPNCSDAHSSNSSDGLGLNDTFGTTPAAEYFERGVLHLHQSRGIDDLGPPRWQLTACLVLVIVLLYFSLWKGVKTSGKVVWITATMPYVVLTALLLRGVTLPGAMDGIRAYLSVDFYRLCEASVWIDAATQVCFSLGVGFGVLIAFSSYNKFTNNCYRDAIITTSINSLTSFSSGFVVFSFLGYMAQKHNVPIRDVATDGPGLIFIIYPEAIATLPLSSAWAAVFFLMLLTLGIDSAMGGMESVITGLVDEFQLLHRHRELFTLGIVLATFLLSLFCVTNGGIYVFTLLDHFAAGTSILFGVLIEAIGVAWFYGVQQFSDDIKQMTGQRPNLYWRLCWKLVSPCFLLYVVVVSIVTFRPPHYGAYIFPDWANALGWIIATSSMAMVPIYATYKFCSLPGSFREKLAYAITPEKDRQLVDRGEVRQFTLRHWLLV
Sequence of Norepinephrine Transporter (NET) Sites in Mouse Brain (O55192 whole entry): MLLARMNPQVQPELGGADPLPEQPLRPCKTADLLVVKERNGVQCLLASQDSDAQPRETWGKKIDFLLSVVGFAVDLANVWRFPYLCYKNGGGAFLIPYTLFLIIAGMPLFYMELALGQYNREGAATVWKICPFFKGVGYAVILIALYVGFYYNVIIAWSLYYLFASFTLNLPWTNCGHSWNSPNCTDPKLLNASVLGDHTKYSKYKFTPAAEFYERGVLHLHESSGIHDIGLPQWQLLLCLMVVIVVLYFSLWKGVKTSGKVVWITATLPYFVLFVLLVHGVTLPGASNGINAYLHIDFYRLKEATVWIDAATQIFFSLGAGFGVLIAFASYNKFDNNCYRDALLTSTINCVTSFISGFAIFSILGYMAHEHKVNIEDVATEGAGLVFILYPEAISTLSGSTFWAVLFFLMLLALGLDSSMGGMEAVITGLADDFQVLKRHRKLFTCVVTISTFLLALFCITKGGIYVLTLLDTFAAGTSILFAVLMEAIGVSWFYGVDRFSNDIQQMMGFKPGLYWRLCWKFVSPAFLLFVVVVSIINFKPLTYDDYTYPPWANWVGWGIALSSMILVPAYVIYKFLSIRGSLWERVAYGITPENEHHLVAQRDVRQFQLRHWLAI
T1 sequence (Q01959 whole entry): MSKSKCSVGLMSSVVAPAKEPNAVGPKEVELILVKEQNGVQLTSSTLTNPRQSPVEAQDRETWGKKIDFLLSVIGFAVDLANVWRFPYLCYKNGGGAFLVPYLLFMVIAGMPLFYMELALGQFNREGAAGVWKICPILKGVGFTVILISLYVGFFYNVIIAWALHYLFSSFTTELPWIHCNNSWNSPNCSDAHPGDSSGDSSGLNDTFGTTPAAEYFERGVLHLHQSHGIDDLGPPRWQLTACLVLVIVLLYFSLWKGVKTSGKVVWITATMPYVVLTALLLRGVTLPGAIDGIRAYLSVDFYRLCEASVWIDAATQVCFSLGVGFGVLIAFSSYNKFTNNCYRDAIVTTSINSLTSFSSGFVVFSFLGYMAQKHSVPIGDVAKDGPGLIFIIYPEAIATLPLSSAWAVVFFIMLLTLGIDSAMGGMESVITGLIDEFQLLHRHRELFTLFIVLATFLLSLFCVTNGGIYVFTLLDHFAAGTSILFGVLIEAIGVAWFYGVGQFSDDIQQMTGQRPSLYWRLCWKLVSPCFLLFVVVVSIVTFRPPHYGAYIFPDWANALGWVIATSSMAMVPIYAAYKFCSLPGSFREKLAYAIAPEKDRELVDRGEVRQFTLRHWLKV
T2 sequence (Q60857 whole entry): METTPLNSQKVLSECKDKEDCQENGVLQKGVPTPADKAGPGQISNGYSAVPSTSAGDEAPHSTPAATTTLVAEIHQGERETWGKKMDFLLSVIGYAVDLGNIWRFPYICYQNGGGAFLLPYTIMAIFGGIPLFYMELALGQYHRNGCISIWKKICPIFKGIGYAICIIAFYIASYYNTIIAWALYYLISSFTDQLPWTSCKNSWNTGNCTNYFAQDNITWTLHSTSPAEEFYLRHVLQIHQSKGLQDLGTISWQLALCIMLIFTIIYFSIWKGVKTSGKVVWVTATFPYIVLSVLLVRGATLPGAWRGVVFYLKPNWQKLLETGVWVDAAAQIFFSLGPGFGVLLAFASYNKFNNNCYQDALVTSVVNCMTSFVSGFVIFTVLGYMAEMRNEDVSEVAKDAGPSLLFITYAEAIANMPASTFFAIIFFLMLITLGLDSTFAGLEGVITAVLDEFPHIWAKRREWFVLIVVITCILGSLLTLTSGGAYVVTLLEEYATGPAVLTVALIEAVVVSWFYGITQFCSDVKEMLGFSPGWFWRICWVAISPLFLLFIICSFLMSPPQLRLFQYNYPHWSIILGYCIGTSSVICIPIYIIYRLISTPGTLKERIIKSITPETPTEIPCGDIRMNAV

CN(C)CC1(c2ccc3ccccc3c2)CCC(O)(CF)CC1 (stereo not drawn) [Compound 246, 4-((dimethylamino)methyl)-1-(fluoromethyl)-4-(naphthalen-2-yl)cyclohexanol]
IC50 [1, 6]: 43 nM
IC50 [2, 7]: 282 nM

CN(C)CC1(c2ccc(OC(F)(F)F)cc2)CCC(C)(O)CC1 (stereo not drawn) [Compound 248, 4-((dimethylamino)methyl)-1-methyl-4-(4-(trifluoromethoxy)phenyl)cyclohexanol]
IC50 [1, 6]: 159 nM
IC50 [2, 7]: 7250 nM

CNCC1(c2ccc3ccccc3c2)CCC(F)(F)CC1 [Compound 251, 1-(4,4-difluoro-1-(naphthalen-2-yl)cyclohexyl)-N-methylmethanamine]
IC50 [1, 6]: 199 nM
IC50 [2, 7]: 107 nM

CN(C)CC1(c2ccc3ccccc3c2)CCC(F)(F)CC1 [Compound 252, 1-(4,4-difluoro-1-(naphthalen-2-yl)cyclohexyl)-N,N-dimethylmethanamine]
IC50 [1, 6]: 11 nM and 12 nM
IC50 [2, 7]: 6 nM and 5 nM

COC1CCC(CN)(c2ccc(Cl)c(Cl)c2)CC1 (stereo not drawn) [Compound 255, (1-(3,4-dichlorophenyl)-4-methoxycyclohexyl)methanamine]
IC50 [1, 6]: 1420 nM
IC50 [2, 7]: 170 nM

COC1CCC(CN)(c2ccc(Cl)c(Cl)c2)CC1 (stereo not drawn) [Compound 257, (1-(3,4-dichlorophenyl)-4-methoxycyclohexyl)methanamine]
IC50 [1, 6]: 2080 nM
IC50 [2, 7]: 2000 nM

CNCC1(c2ccc(Cl)c(Cl)c2)CCC(OC)CC1 (stereo not drawn) [Compound 259, 1-(1-(3,4-dichlorophenyl)-4-methoxycyclohexyl)-N-methylmethanamine]
IC50 [1, 6]: 5890 nM
IC50 [2, 7]: 665 nM

CN(C)CC1(c2ccc(Cl)c(Cl)c2)CCC(F)CC1 (stereo not drawn) [Compound 261, 1-(1-(3,4-dichlorophenyl)-4-fluorocyclohexyl)-N,N-dimethylmethanamine]
IC50 [1, 8]: 30 nM
IC50 ([2]; Human IC50 (nM) hDAT): 7 nM

NCC1(c2ccc(Cl)c(Cl)c2)CCC(O)CC1 (stereo not drawn) [Compound 262, 4-(aminomethyl)-4-(3,4-dichlorophenyl)cyclohexanol]
IC50 [1, 8]: > 10000 nM
IC50 [2, 7]: 4280 nM

CN(C)CC1(c2ccc(Cl)c(Cl)c2)CCC(O)CC1 (stereo not drawn) [Compound 263, 4-(3,4-dichlorophenyl)-4-((dimethylamino)methyl)cyclohexanol]
IC50 [1, 6]: 674 nM
IC50 [2, 7]: 498 nM

CNCC1(c2ccc(Cl)c(Cl)c2)CCC(F)CC1 (stereo not drawn) [Compound 264, 1-(1-(3,4-dichlorophenyl)-4-fluorocyclohexyl)-N-methylmethanamine]
IC50 [1, 6]: 1050 nM
IC50 [2, 7]: 17 nM

NCC1(c2ccc(Cl)c(Cl)c2)CCC(Oc2ccccc2)CC1 (stereo not drawn) [Compound 265, (1-(3,4-dichlorophenyl)-4-phenoxycyclohexyl)methanamine]
IC50 [1, 6]: 109 nM
IC50 [2, 7]: 1450 nM

CN(C)CC1(c2ccc(Cl)c(Cl)c2)CCC(Oc2ccccc2)CC1 (stereo not drawn) [Compound 266, 1-(1-(3,4-dichlorophenyl)-4-phenoxycyclohexyl)-N,N-dimethylmethanamine]
IC50 [1, 8]: 168 nM
IC50 ([2]; read-out: Human IC50 (nM) hDAT): 859 nM

NCC1(c2ccc(Cl)c(Cl)c2)CCC(F)(F)CC1 [Compound 267, (1-(3,4-dichlorophenyl)-4,4-difluorocyclohexyl)methanamine]
IC50 [1, 6]: 1290 nM
IC50 [2, 7]: 147 nM

CNCC1(c2ccc(Cl)c(Cl)c2)CCC2(CC1)OCCO2 [Compound 270, 1-(8-(3,4-dichlorophenyl)-1,4-dioxaspiro[4.5]decan-8-yl)-N-methylmethanamine]
IC50 [1, 6]: 469 nM
IC50 [2, 7]: 376 nM

CN(C)CC1(c2ccc(Cl)c(Cl)c2)CCC2(CC1)OCCO2 [Compound 271, 1-(8-(3,4-dichlorophenyl)-1,4-dioxaspiro[4.5]decan-8-yl)-N,N-dimethylmethanamine]
IC50 [1, 8]: 79 nM
IC50 [2, 7]: 197 nM

CNCC1(c2ccc(Cl)c(Cl)c2)CCC(C)(O)CC1 (stereo not drawn) [Compound 273, 4-(3,4-dichlorophenyl)-1-methyl-4-((methylamino)methyl)cyclohexanol]
IC50 [1, 6]: 830 nM
IC50 [2, 7]: 528 nM

CN(C)CC1(c2ccc(Cl)c(Cl)c2)CCC(C)(O)CC1 (stereo not drawn) [Compound 274, 4-(3,4-dichlorophenyl)-4-((dimethylamino)methyl)-1-methylcyclohexanol]
IC50 [1, 6]: 809 nM
IC50 [2, 7]: 251 nM

CNCC1(c2ccc(Cl)c(Cl)c2)CCC(C)(O)CC1 (stereo not drawn) [Compound 276, 4-(3,4-dichlorophenyl)-1-methyl-4-((methylamino)methyl)cyclohexanol]
IC50 [1, 6]: 210 nM
% Transporter Occupancy, SERT ([3]; 1 mg/kg): 12%
Mean Specific Binding (dpm) ± S.E.M., SERT ([3]; 1 mg/kg): 3743 ± 199 dpm
% Transporter Occupancy, SERT ([3]; 3 mg/kg): 14%
Mean Specific Binding (dpm) ± S.E.M., SERT ([3]; 3 mg/kg): 3685 ± 292 dpm
% Transporter Occupancy, SERT ([3]; 10 mg/kg): 28%
Mean Specific Binding (dpm) ± S.E.M., SERT ([3]; 10 mg/kg): 3092 ± 207 dpm
% Transporter Occupancy, SERT ([3]; 30 mg/kg): 64%
Mean Specific Binding (dpm) ± S.E.M., SERT ([3]; 30 mg/kg): 1558 ± 169 dpm
% Transporter Occupancy, DAT ([4]; 1 mg/kg): -21%
% Transporter Occupancy, DAT ([4]; 3 mg/kg): -9%
Mean Specific Binding (dpm) ± S.E.M., DAT ([4]; 3 mg/kg): 16312 ± 2396 dpm
% Transporter Occupancy, DAT ([4]; 10 mg/kg): -6%
Mean Specific Binding (dpm) ± S.E.M., DAT ([4]; 10 mg/kg): 15879 ± 2265 dpm
% Transporter Occupancy, DAT ([4]; 30 mg/kg): 31%
Mean Specific Binding (dpm) ± S.E.M., DAT ([4]; 30 mg/kg): 10397 ± 931 dpm
Mouse Locomotor Activity Total Distance Traveled ± S.E.M. (mice; 3 mg/kg): 625.9 ± 47.5
Mouse Locomotor Activity Total Distance Traveled ± S.E.M. (mice; 10 mg/kg): 382.4 ± 63.4
Mouse Locomotor Activity Total Distance Traveled ± S.E.M. (mice; 30 mg/kg): 607.8 ± 57.8
% Transporter Occupancy, NET ([5]; 1 mg/kg): -4%
Mean Specific Binding (dpm) ± S.E.M., NET ([5]; 1 mg/kg): 1602 ± 51 dpm
% Transporter Occupancy, NET ([5]; 3 mg/kg): -6%
Mean Specific Binding (dpm) ± S.E.M., NET ([5]; 3 mg/kg): 1631 ± 92 dpm
% Transporter Occupancy, NET ([5]; 10 mg/kg): -1%
Mean Specific Binding (dpm) ± S.E.M., NET ([5]; 10 mg/kg): 1553 ± 27 dpm
% Transporter Occupancy, NET ([5]; 30 mg/kg): 26%
Mean Specific Binding (dpm) ± S.E.M., NET ([5]; 30 mg/kg): 1138 ± 59 dpm

CCC1(O)CCC(CN)(c2ccc(Cl)c(Cl)c2)CC1 (stereo not drawn) [Compound 278, 4-(aminomethyl)-4-(3,4-dichlorophenyl)-1-ethylcyclohexanol]
IC50 [1, 6]: 5140 nM
IC50 [2, 7]: 3190 nM

CCC1(O)CCC(CN(C)C)(c2ccc(Cl)c(Cl)c2)CC1 (stereo not drawn) [Compound 280, 4-(3,4-dichlorophenyl)-4-((dimethylamino)methyl)-1-ethylcyclohexanol]
IC50 [1, 6]: 7 nM
IC50 [2, 7]: 242 nM

CCC1(O)CCC(CN)(c2ccc(Cl)c(Cl)c2)CC1 (stereo not drawn) [Compound 281, 4-(aminomethyl)-4-(3,4-dichlorophenyl)-1-ethylcyclohexanol]
IC50 [1, 6]: 256 nM
IC50 [2, 7]: 384 nM

CCC1(O)CCC(CN(C)C)(c2ccc(Cl)c(Cl)c2)CC1 (stereo not drawn) [Compound 283, 4-(3,4-dichlorophenyl)-4-((dimethylamino)methyl)-1-ethylcyclohexanol]
IC50 [1, 6]: 20 nM
IC50 [2, 7]: 37 nM

CCCC1(O)CCC(CN)(c2ccc(Cl)c(Cl)c2)CC1 (stereo not drawn) [Compound 284, 4-(aminomethyl)-4-(3,4-dichlorophenyl)-1-propylcyclohexanol]
IC50 [1, 6]: 7900 nM
IC50 [2, 7]: 2460 nM

CCCC1(O)CCC(CNC)(c2ccc(Cl)c(Cl)c2)CC1 (stereo not drawn) [Compound 285, 4-(3,4-dichlorophenyl)-4-((methylamino)methyl)-1-propylcyclohexanol]
IC50 [1, 6]: 1140 nM
IC50 [2, 7]: 1900 nM

CCCC1(O)CCC(CN(C)C)(c2ccc(Cl)c(Cl)c2)CC1 (stereo not drawn) [Compound 286, 4-(3,4-dichlorophenyl)-4-((dimethylamino)methyl)-1-propylcyclohexanol]
IC50 [1, 8]: 46 nM
IC50 [2, 7]: 198 nM

CNCC1(c2ccc(Cl)c(Cl)c2)CCC(=O)CC1 [Compound 289, 4-(3,4-Dichloro-phenyl)-4-methylaminomethyl-cyclohexanone]
IC50 [1, 6]: 469 nM
IC50 [2, 7]: 282 nM

Clc1ccc(C2(C3CCCN3)CCCCC2)cc1Cl (stereo not drawn) [Compound 296, 2-(1-(3,4-dichlorophenyl)cyclohexyl)pyrrolidine]
IC50 [1, 6]: 73 nM
IC50 [2, 7]: 27 nM

c1ccc2cc(C3(C4CCCN4)CCCCC3)ccc2c1 (stereo not drawn) [Compound 297, 2-(1-(naphthalen-2-yl)cyclohexyl)pyrrolidine]
IC50 [1, 6]: 40 nM
IC50 [2, 7]: 13 nM

NCC1(c2ccc(Cl)c(Cl)c2)CCC(O)C1 (stereo not drawn) [cis 167, 3-(aminomethyl)-3-(3,4-dichlorophenyl)cyclopentanol]
IC50 [1, 9]: > 10000 nM
IC50 [2, 7]: 2220 nM

NCC1(c2ccc(Cl)c(Cl)c2)CCC(O)C1 (stereo not drawn) [trans 167, 3-(aminomethyl)-3-(3,4-dichlorophenyl)cyclopentanol]
IC50 [1, 9]: 4910 nM
IC50 [2, 7]: 145 nM

From patent EP1976513B1 (priority 2006, dated 2007)
